# Experimental data: PubChem BioAssay (NCI)
#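 Each compound was tested at five concentrations against cells in 96-well plates for 48 hours. GI50 marks 50% less growth. TGI is the concentration that stops growth completely.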
# Experiments:
# Assay in all cases: NCI anticancer screen, dose series, 48 h
# HL-60(TB) leukemia = test system: HL-60(TB) leukemia
# NCI-H460 lung = test system: NCI-H460 lung
# SK-MEL-5 melanoma = test system: SK-MEL-5 melanoma
# KM12 colon = test system: KM12 colon
# EKVX NSCLC = test system: EKVX NSCLC
# SNB-75 CNS = test system: SNB-75 CNS
# K-562 leukemia = test system: K-562 leukemia
# NCI-H522 lung = test system: NCI-H522 lung
# M14 melanoma = test system: M14 melanoma
# MDA-MB-468 breast = test system: MDA-MB-468 breast
# OVCAR-5 ovarian = test system: OVCAR-5 ovarian
# DU-145 prostate = test system: DU-145 prostate
# SW-620 colon = test system: SW-620 colon
# SN12C renal = test system: SN12C renal
# UACC-257 melanoma = test system: UACC-257 melanoma
# T-47D breast = test system: T-47D breast
# MDA-MB-435 = test system: MDA-MB-435
# U251 CNS = test system: U251 CNS
# ACHN renal = test system: ACHN renal
# NCI-H23 lung = test system: NCI-H23 lung
# OVCAR-8 ovarian = test system: OVCAR-8 ovarian
# SF-268 CNS = test system: SF-268 CNS
# TK-10 renal = test system: TK-10 renal
# HT29 colon = test system: HT29 colon
# BT-549 breast = test system: BT-549 breast
# LOX IMVI melanoma = test system: LOX IMVI melanoma
# RXF 393 renal = test system: RXF 393 renal
# CCRF-CEM leukemia = test system: CCRF-CEM leukemia
# SK-MEL-28 melanoma = test system: SK-MEL-28 melanoma
# HOP-92 NSCLC = test system: HOP-92 NSCLC
# 786-0 renal = test system: 786-0 renal
# IGROV1 ovarian = test system: IGROV1 ovarian
# PC-3 prostate = test system: PC-3 prostate
# OVCAR-3 ovarian = test system: OVCAR-3 ovarian
# SK-OV-3 ovarian = test system: SK-OV-3 ovarian
# NCI/ADR-RES ovarian = test system: NCI/ADR-RES ovarian
# CAKI-1 renal = test system: CAKI-1 renal
# COLO 205 colon = test system: COLO 205 colon
# OVCAR-4 ovarian = test system: OVCAR-4 ovarian
# NCI-H226 lung = test system: NCI-H226 lung
# HCT-15 colon = test system: HCT-15 colon
# MOLT-4 leukemia = test system: MOLT-4 leukemia
# SR leukemia = test system: SR leukemia
# SF-539 CNS = test system: SF-539 CNS
# UO-31 renal = test system: UO-31 renal
# HCC-2998 colon = test system: HCC-2998 colon
# HOP-62 NSCLC = test system: HOP-62 NSCLC
# SNB-19 CNS = test system: SNB-19 CNS
# MALME-3M melanoma = test system: MALME-3M melanoma
# A549 NSCLC = test system: A549 NSCLC
# SF-295 CNS = test system: SF-295 CNS
# HCT-116 colon = test system: HCT-116 colon
# UACC-62 melanoma = test system: UACC-62 melanoma
# SK-MEL-2 melanoma = test system: SK-MEL-2 melanoma
# HS 578T breast = test system: HS 578T breast
# MDA-MB-231 breast = test system: MDA-MB-231 breast
# MCF7 breast = test system: MCF7 breast
# A498 renal = test system: A498 renal
compound,measurement,setting,value
COc1ccc(/C=C/C(=O)c2ccc(S(=O)(=O)NCCNc3nc(Nc4ccc(F)cc4)nc(N(C)C)n3)cc2)cc1,GI50,HL-60(TB) leukemia,3.6 µM
same,TGI,HL-60(TB) leukemia,31.5 µM
same,GI50,NCI-H460 lung,4.11 µM
same,TGI,NCI-H460 lung,21.6 µM
same,GI50,SK-MEL-5 melanoma,3.5 µM
same,TGI,SK-MEL-5 melanoma,13.2 µM
same,GI50,KM12 colon,4.01 µM
same,TGI,KM12 colon,16.7 µM
same,GI50,EKVX NSCLC,4.12 µM
same,TGI,EKVX NSCLC,22.3 µM
same,GI50,SNB-75 CNS,3.57 µM
same,TGI,SNB-75 CNS,> 100 µM
same,GI50,K-562 leukemia,3.99 µM
same,TGI,K-562 leukemia,> 100 µM
same,GI50,NCI-H522 lung,2.55 µM
same,TGI,NCI-H522 lung,12.5 µM
same,GI50,M14 melanoma,4.27 µM
same,TGI,M14 melanoma,19.2 µM
same,GI50,MDA-MB-468 breast,2.57 µM
same,TGI,MDA-MB-468 breast,10.3 µM
same,GI50,OVCAR-5 ovarian,8.44 µM
same,TGI,OVCAR-5 ovarian,45.9 µM
same,GI50,DU-145 prostate,7.54 µM
same,TGI,DU-145 prostate,> 100 µM
same,GI50,SW-620 colon,5.42 µM
same,TGI,SW-620 colon,19.7 µM
same,GI50,SN12C renal,3.6 µM
same,TGI,SN12C renal,13.3 µM
same,GI50,UACC-257 melanoma,13.3 µM
same,TGI,UACC-257 melanoma,38.4 µM
same,GI50,T-47D breast,3.78 µM
same,TGI,T-47D breast,89.8 µM
same,GI50,MDA-MB-435,5.47 µM
same,TGI,MDA-MB-435,23.4 µM
same,GI50,U251 CNS,6.7 µM
same,TGI,U251 CNS,21.5 µM
same,GI50,ACHN renal,3.4 µM
same,TGI,ACHN renal,> 100 µM
same,GI50,NCI-H23 lung,10.4 µM
same,TGI,NCI-H23 lung,50.5 µM
same,GI50,OVCAR-8 ovarian,9.51 µM
same,TGI,OVCAR-8 ovarian,> 100 µM
same,GI50,SF-268 CNS,4.43 µM
same,TGI,SF-268 CNS,55.8 µM
same,GI50,TK-10 renal,8.09 µM
same,TGI,TK-10 renal,> 100 µM
same,GI50,HT29 colon,1.83 µM
same,TGI,HT29 colon,3.73 µM
same,GI50,BT-549 breast,13.2 µM
same,TGI,BT-549 breast,27.4 µM
same,GI50,LOX IMVI melanoma,3.23 µM
same,TGI,LOX IMVI melanoma,11.5 µM
same,GI50,RXF 393 renal,2.59 µM
same,TGI,RXF 393 renal,12.3 µM
same,GI50,CCRF-CEM leukemia,4.09 µM
same,TGI,CCRF-CEM leukemia,> 100 µM
same,GI50,SK-MEL-28 melanoma,5.23 µM
same,TGI,SK-MEL-28 melanoma,19 µM
same,GI50,HOP-92 NSCLC,3.25 µM
same,TGI,HOP-92 NSCLC,31 µM
same,GI50,786-0 renal,6.33 µM
same,TGI,786-0 renal,> 100 µM
same,GI50,IGROV1 ovarian,10.8 µM
same,TGI,IGROV1 ovarian,45.6 µM
same,GI50,PC-3 prostate,3.5 µM
same,TGI,PC-3 prostate,> 100 µM
same,GI50,OVCAR-3 ovarian,5.01 µM
same,TGI,OVCAR-3 ovarian,19.9 µM
same,GI50,SK-OV-3 ovarian,13.9 µM
same,TGI,SK-OV-3 ovarian,76.3 µM
same,GI50,NCI/ADR-RES ovarian,5.66 µM
same,TGI,NCI/ADR-RES ovarian,35.5 µM
same,GI50,CAKI-1 renal,3.34 µM
same,TGI,CAKI-1 renal,> 100 µM
same,GI50,COLO 205 colon,3.46 µM
same,TGI,COLO 205 colon,14.3 µM
same,GI50,OVCAR-4 ovarian,4.12 µM
same,TGI,OVCAR-4 ovarian,> 100 µM
same,GI50,NCI-H226 lung,3.8 µM
same,TGI,NCI-H226 lung,20.4 µM
same,GI50,HCT-15 colon,2.71 µM
same,TGI,HCT-15 colon,7.07 µM
same,GI50,MOLT-4 leukemia,3.12 µM
same,TGI,MOLT-4 leukemia,13.2 µM
same,GI50,SR leukemia,2.97 µM
same,TGI,SR leukemia,13.2 µM
same,GI50,SF-539 CNS,10.3 µM
same,TGI,SF-539 CNS,23 µM
same,GI50,UO-31 renal,3.78 µM
same,TGI,UO-31 renal,99.4 µM
same,GI50,HCC-2998 colon,5.47 µM
same,TGI,HCC-2998 colon,18 µM
same,GI50,HOP-62 NSCLC,17.1 µM
same,TGI,HOP-62 NSCLC,> 100 µM
same,GI50,SNB-19 CNS,5.58 µM
same,TGI,SNB-19 CNS,45.5 µM
same,GI50,MALME-3M melanoma,10.6 µM
same,TGI,MALME-3M melanoma,43.9 µM
same,GI50,A549 NSCLC,6.54 µM
same,TGI,A549 NSCLC,> 100 µM
same,GI50,SF-295 CNS,5.05 µM
same,TGI,SF-295 CNS,18.7 µM
same,GI50,HCT-116 colon,1.86 µM
same,TGI,HCT-116 colon,3.62 µM
same,GI50,UACC-62 melanoma,4.79 µM
same,TGI,UACC-62 melanoma,19.3 µM
same,GI50,SK-MEL-2 melanoma,8.1 µM
same,TGI,SK-MEL-2 melanoma,22.3 µM
same,GI50,HS 578T breast,4.68 µM
same,TGI,HS 578T breast,44.8 µM
same,GI50,MDA-MB-231 breast,2.73 µM
same,TGI,MDA-MB-231 breast,10.5 µM
same,GI50,MCF7 breast,1.93 µM
same,TGI,MCF7 breast,5.85 µM
same,GI50,A498 renal,10 µM
same,TGI,A498 renal,29.7 µM
